System: MV-4-11 cells
Assay: Gene expression microarray analysis (Affymetrix PrimeView) and GSEA
Assay type: cell-based, human
Design: RFU PODN (11730768_x_at) / Fold change /veh PODN (11730768_x_at) / RFU LINC00158 (11744669_a_at) / Fold change /veh LINC00158 (11744669_a_at) / RFU DUSP10 (11751237_a_at) / Fold change /veh DUSP10 (11751237_a_at) / RFU ID3 (11757404_x_at) / Fold change /veh ID3 (11757404_x_at) / RFU PLEKHG5 (11737974_s_at) / Fold change /veh PLEKHG5 (11737974_s_at) / RFU LRRC4B (11730491_at) / Fold change /veh LRRC4B (11730491_at) / RFU GIMAP4 (11747438_a_at) / Fold change /veh GIMAP4 (11747438_a_at) / RFU KRT8 (11758183_x_at) / Fold change /veh KRT8 (11758183_x_at) / RFU CNN1 (11734310_a_at) / Fold change /veh CNN1 (11734310_a_at) / RFU VPS37D (11726825_at) / Fold change /veh VPS37D (11726825_at) / RFU C10orf10 (11716522_x_at) / Fold change /veh C10orf10 (11716522_x_at) / RFU KIR2DL2 /// KIR2DL4 /// KIR2DL5A /// KIR2DL5B /// KIR2DS1 /// KIR2DS2 /// KIR2DS3 /// KIR2DS4 /// KIR3DL3 /// KIR3DL3 /// KIR3DS1 (11738374_at) / Fold change /veh KIR2DL2 /// KIR2DL4 /// KIR2DL5A /// KIR2DL5B /// KIR2DS1 /// KIR2DS2 /// KIR2DS3 /// KIR2DS4 /// KIR3DL3 /// KIR3DL3 /// KIR3DS1 (11738374_at) / RFU C1QL1 (11718748_at) / Fold change /veh C1QL1 (11718748_at) / RFU TMPRSS4 (11747572_a_at) / Fold change /veh TMPRSS4 (11747572_a_at) / RFU HAMP (11756126_x_at) / Fold change /veh HAMP (11756126_x_at) / RFU RNFT2 (11725882_a_at) / Fold change /veh RNFT2 (11725882_a_at) / RFU NR4A2 (11747474_a_at) / Fold change /veh NR4A2 (11747474_a_at) / RFU ABCC12 (11746883_a_at) / Fold change /veh ABCC12 (11746883_a_at) / RFU TMEM136 (11760407_x_at) / Fold change /veh TMEM136 (11760407_x_at) / RFU CLDN22 /// WWC2 (11732394_at) / Fold change /veh CLDN22 /// WWC2 (11732394_at) / RFU HLA-DPB1 (11760878_x_at) / Fold change /veh HLA-DPB1 (11760878_x_at) / RFU SPINT1 (11716480_a_at) / Fold change /veh SPINT1 (11716480_a_at) / RFU GAP43 (11754022_s_at) / Fold change /veh GAP43 (11754022_s_at) / RFU A4GNT (11735810_at) / Fold change /veh A4GNT (11735810_at) / RFU PRB3 (11715151_x_at) / Fold change /veh PRB3 (11715151_x_at) / RFU TUBB4B (11761932_at) / Fold change /veh TUBB4B (11761932_at) / RFU CAPN14 (11732068_a_at) / Fold change /veh CAPN14 (11732068_a_at) / RFU TMCC2 (11721928_a_at) / Fold change /veh TMCC2 (11721928_a_at) / RFU IRGQ (11745062_a_at) / Fold change /veh IRGQ (11745062_a_at) / RFU FAM174B (11720279_a_at) / Fold change /veh FAM174B (11720279_a_at) / RFU TMPRSS4 (11748680_a_at) / Fold change /veh TMPRSS4 (11748680_a_at) / RFU FAM212B (11763350_a_at) / Fold change /veh FAM212B (11763350_a_at) / RFU PLEKHG5 (11743358_a_at) / Fold change /veh PLEKHG5 (11743358_a_at) / RFU ZSCAN30 (11745921_a_at) / Fold change /veh ZSCAN30 (11745921_a_at) / RFU CMKLR1 (11741424_a_at) / Fold change /veh CMKLR1 (11741424_a_at) / RFU LOC101060620 /// MAPK8IP1 (11723275_at) / Fold change /veh LOC101060620 /// MAPK8IP1 (11723275_at) / RFU SPTSSB (11747773_x_at) / Fold change /veh SPTSSB (11747773_x_at) / RFU PRSS12 (11739890_at) / Fold change /veh PRSS12 (11739890_at) / RFU BIN1 (11741810_x_at) / Fold change /veh BIN1 (11741810_x_at) / RFU WNT11 (11732464_a_at) / Fold change /veh WNT11 (11732464_a_at) / RFU C10orf10 (11716521_a_at) / Fold change /veh C10orf10 (11716521_a_at) / RFU C5orf56 (11738089_at) / Fold change /veh C5orf56 (11738089_at) / RFU CYB561 (11721691_x_at) / Fold change /veh CYB561 (11721691_x_at) / RFU ANKRD19P (11752326_a_at) / Fold change /veh ANKRD19P (11752326_a_at) / RFU OR2T12 /// OR2T33 /// OR2T8 (11738714_s_at) / Fold change /veh OR2T12 /// OR2T33 /// OR2T8 (11738714_s_at) / RFU VCAN (11748164_a_at) / Fold change /veh VCAN (11748164_a_at) / RFU JSRP1 (11732532_at) / Fold change /veh JSRP1 (11732532_at) / RFU KRTAP10-11 (11738290_x_at) / Fold change /veh KRTAP10-11 (11738290_x_at) / RFU MYO3A (11730013_a_at) / Fold change /veh MYO3A (11730013_a_at) / RFU EBF3 (11725865_a_at) / Fold change /veh EBF3 (11725865_a_at) / RFU CAMK2N1 (11719241_x_at) / Fold change /veh CAMK2N1 (11719241_x_at) / RFU C5orf56 (11738088_a_at) / Fold change /veh C5orf56 (11738088_a_at) / RFU OLFML3 (11715873_a_at) / Fold change /veh OLFML3 (11715873_a_at) / RFU LOC100653217 /// NTM (11731650_a_at) / Fold change /veh LOC100653217 /// NTM (11731650_a_at) / RFU MAPK11 (11762145_a_at) / Fold change /veh MAPK11 (11762145_a_at) / RFU FIZ1 (11724087_x_at) / Fold change /veh FIZ1 (11724087_x_at) / RFU OASL (11726364_x_at) / Fold change /veh OASL (11726364_x_at) / RFU SOX15 (11748057_x_at) / Fold change /veh SOX15 (11748057_x_at) / RFU CD79A (11719716_a_at) / Fold change /veh CD79A (11719716_a_at) / RFU HIST1H1D (11736915_at) / Fold change /veh HIST1H1D (11736915_at) / RFU CASKIN2 (11723855_a_at) / Fold change /veh CASKIN2 (11723855_a_at) / RFU LOC730098 (11760151_x_at) / Fold change /veh LOC730098 (11760151_x_at) / RFU OR4N2 (11742367_at) / Fold change /veh OR4N2 (11742367_at) / RFU PRRT2 (11749266_a_at) / Fold change /veh PRRT2 (11749266_a_at) / RFU SNX32 (11753110_a_at) / Fold change /veh SNX32 (11753110_a_at) / RFU CDHR5 (11726645_a_at) / Fold change /veh CDHR5 (11726645_a_at) / RFU RCAN1 (11760418_a_at) / Fold change /veh RCAN1 (11760418_a_at) / RFU FAM167A (11723789_a_at) / Fold change /veh FAM167A (11723789_a_at) / RFU FAM26E (11764081_at) / Fold change /veh FAM26E (11764081_at) / RFU ISYNA1 (11749810_s_at) / Fold change /veh ISYNA1 (11749810_s_at) / RFU ACY1 (11761880_at) / Fold change /veh ACY1 (11761880_at) / RFU 11764098_at / Fold change /veh 11764098_at / RFU SAMD14 (11745864_x_at) / Fold change /veh SAMD14 (11745864_x_at) / RFU NPB (11741838_a_at) / Fold change /veh NPB (11741838_a_at) / RFU TMPRSS6 (11731388_a_at) / Fold change /veh TMPRSS6 (11731388_a_at) / RFU KRTAP10-2 (11738614_at) / Fold change /veh KRTAP10-2 (11738614_at) / RFU ARHGAP8 /// PRR5-ARHGAP8 (11727945_x_at) / Fold change /veh ARHGAP8 /// PRR5-ARHGAP8 (11727945_x_at) / RFU KRTAP5-7 /// NADSYN1 (11734609_at) / Fold change /veh KRTAP5-7 /// NADSYN1 (11734609_at) / RFU RASL12 (11751679_a_at) / Fold change /veh RASL12 (11751679_a_at) / RFU CDKN2B (11736163_a_at) / Fold change /veh CDKN2B (11736163_a_at) / RFU PRF1 (11729649_at) / Fold change /veh PRF1 (11729649_at) / RFU, ZNF638 /// ZNF638-IT1 / Fold change vs veh, ZNF638 /// ZNF638-IT1 / RFU, PANK3 / Fold change vs veh, PANK3 / RFU, SH3YL1 / Fold change vs veh, SH3YL1 / RFU, ZEB2 / Fold change vs veh, ZEB2 / RFU, NRIP1 / Fold change vs veh, NRIP1 / RFU, PTTG1IP / Fold change vs veh, PTTG1IP / RFU, CAPN2 / Fold change vs veh, CAPN2 / RFU, MED14 / Fold change vs veh, MED14 / RFU, SNORA58 / Fold change vs veh, SNORA58 / RFU, C1orf63 / Fold change vs veh, C1orf63 / RFU, LRRFIP1 / Fold change vs veh, LRRFIP1 / RFU, NDUFAF7 / Fold change vs veh, NDUFAF7 / RFU, SLC12A2 / Fold change vs veh, SLC12A2 / RFU, IBTK / Fold change vs veh, IBTK / RFU, ESF1 / Fold change vs veh, ESF1 / Fold change vs veh, TMEM50B / RFU, TAOK1 / Fold change vs veh, TAOK1 / RFU, ACBD3 / Fold change vs veh, ACBD3 / RFU, TMA16 / Fold change vs veh, TMA16 / RFU, RWDD3 / Fold change vs veh, RWDD3 / RFU, BCAT1 / Fold change vs veh, BCAT1 / RFU, EDEM3 / Fold change vs veh, EDEM3 / RFU, TMEM33 / Fold change vs veh, TMEM33 / RFU, WDR75 / Fold change vs veh, WDR75 / RFU, AHCTF1 / Fold change vs veh, AHCTF1 / RFU, TFRC / Fold change vs veh, TFRC / RFU, ZDHHC17 / Fold change vs veh, ZDHHC17 / RFU, NOM1 / Fold change vs veh, NOM1 / RFU, ARL8B / Fold change vs veh, ARL8B / RFU, ZBTB11 / Fold change vs veh, ZBTB11 / RFU, TAMM41 / Fold change vs veh, TAMM41 / RFU, KIAA1704 /// LOC100996395 / Fold change vs veh, KIAA1704 /// LOC100996395 / RFU, ING1 / Fold change vs veh, ING1 / RFU, TRMT61B / Fold change vs veh, TRMT61B / RFU, FUBP3 / Fold change vs veh, FUBP3 / RFU, TP53 / Fold change vs veh, TP53 / RFU, TNKS2 / Fold change vs veh, TNKS2 / RFU, ZFP14 / Fold change vs veh, ZFP14 / RFU, ACTR2 / Fold change vs veh, ACTR2 / RFU, PPP3R1 / Fold change vs veh, PPP3R1 / RFU, PIK3R1 / Fold change vs veh, PIK3R1 / RFU, HNRNPA1 / Fold change vs veh, HNRNPA1 / RFU, RNF170 / Fold change vs veh, RNF170 / RFU, ZNF28 / Fold change vs veh, ZNF28 / RFU, RNGTT / Fold change vs veh, RNGTT / RFU, OGT / Fold change vs veh, OGT / RFU, BRD1 / Fold change vs veh, BRD1 / RFU, MARS / Fold change vs veh, MARS / RFU, ZNF655 / Fold change vs veh, ZNF655 / RFU, FAHD1 / Fold change vs veh, FAHD1 / RFU, BDP1 / Fold change vs veh, BDP1 / RFU, LRRCC1 / Fold change vs veh, LRRCC1 / RFU, ARID1A / Fold change vs veh, ARID1A / RFU, ZNF146 / Fold change vs veh, ZNF146 / RFU, ZNF330 / Fold change vs veh, ZNF330 / RFU, GPN3 / Fold change vs veh, GPN3 / RFU, C9orf123 / Fold change vs veh, C9orf123 / RFU, N4BP2L2 / Fold change vs veh, N4BP2L2 / RFU, ARFIP1 / Fold change vs veh, ARFIP1 / RFU, FAM179B / Fold change vs veh, FAM179B / RFU, BCL10 / Fold change vs veh, BCL10 / RFU, UHRF1BP1L / Fold change vs veh, UHRF1BP1L / RFU, BET1 / Fold change vs veh, BET1 / RFU, CNOT2 / Fold change vs veh, CNOT2 / RFU, ZNF268 / Fold change vs veh, ZNF268 / Fold change vs veh, ZNF507 / RFU, DGCR2 / Fold change vs veh, DGCR2 / RFU, WDSUB1 / Fold change vs veh, WDSUB1 / Fold change vs veh, HSP90B1 /// MIR3652 / RFU, ADSS / Fold change vs veh, ADSS / RFU, GK / Fold change vs veh, GK / RFU, ZNF148 / Fold change vs veh, ZNF148 / RFU, TAF9 / Fold change vs veh, TAF9 / RFU, SLC1A5 / Fold change vs veh, SLC1A5 / RFU, SLMO2 / Fold change vs veh, SLMO2 / RFU, ABCC4 / Fold change vs veh, ABCC4 / RFU, LOC101060439 /// RAP1B / Fold change vs veh, LOC101060439 /// RAP1B / RFU, RFX7 / Fold change vs veh, RFX7 / RFU, GTPBP10 / Fold change vs veh, GTPBP10 / RFU, CNEP1R1 / Fold change vs veh, CNEP1R1 / RFU, BIVM-ERCC5 /// ERCC5 / Fold change vs veh, BIVM-ERCC5 /// ERCC5 / RFU, ILF3 / Fold change vs veh, ILF3 / RFU 11762660_at / Fold change /veh 11762660_at / RFU VCAN (11757783_s_at) / Fold change /veh VCAN (11757783_s_at) / RFU DDX43 (11728927_at) / Fold change /veh DDX43 (11728927_at) / RFU KRT8 (11758188_x_at) / Fold change /veh KRT8 (11758188_x_at) / RFU NKD1 (11759106_at) / Fold change /veh NKD1 (11759106_at) / RFU SRD5A1 (11742802_a_at) / Fold change /veh SRD5A1 (11742802_a_at) / RFU TPSAB1 /// TPSB2 (11721975_s_at) / Fold change /veh TPSAB1 /// TPSB2 (11721975_s_at) / RFU GSTM3 (11746129_a_at) / Fold change /veh GSTM3 (11746129_a_at) / RFU IL23R (11737362_x_at) / Fold change /veh IL23R (11737362_x_at) / RFU TMEM51 (11727254_a_at) / Fold change /veh TMEM51 (11727254_a_at) / RFU PIWIL2 (11732686_x_at) / Fold change /veh PIWIL2 (11732686_x_at) / RFU ORM1 (11744905_x_at) / Fold change /veh ORM1 (11744905_x_at) / RFU CCDC152 (11743942_at) / Fold change /veh CCDC152 (11743942_at) / RFU ECM1 (11717891_a_at) / Fold change /veh ECM1 (11717891_a_at) / RFU IL23R (11748794_a_at) / Fold change /veh IL23R (11748794_a_at) / RFU TNFAIP8L3 (11732012_x_at) / Fold change /veh TNFAIP8L3 (11732012_x_at) / RFU MBOAT4 (11741988_at) / Fold change /veh MBOAT4 (11741988_at) / RFU 11764193_at / Fold change /veh 11764193_at / RFU TMEM53 (11763286_at) / Fold change /veh TMEM53 (11763286_at) / RFU MAGEB2 (11727129_at) / Fold change /veh MAGEB2 (11727129_at) / RFU TMEM200A (11744735_a_at) / Fold change /veh TMEM200A (11744735_a_at) / RFU CCDC152 (11751479_a_at) / Fold change /veh CCDC152 (11751479_a_at) / RFU FAM211A (11726209_a_at) / Fold change /veh FAM211A (11726209_a_at) / RFU RGS16 (11746705_a_at) / Fold change /veh RGS16 (11746705_a_at) / RFU VCAN (11755009_s_at) / Fold change /veh VCAN (11755009_s_at) / RFU RHOB (11743442_s_at) / Fold change /veh RHOB (11743442_s_at) / RFU RGS16 (11720943_a_at) / Fold change /veh RGS16 (11720943_a_at) / RFU RGS16 (11720944_at) / Fold change /veh RGS16 (11720944_at) / RFU, VPS4B / Fold change vs veh, VPS4B / RFU, CREB1 / Fold change vs veh, CREB1 / RFU, DNAJC13 / Fold change vs veh, DNAJC13 / RFU, GNAQ / Fold change vs veh, GNAQ / RFU, CDK5R1 / Fold change vs veh, CDK5R1 / RFU, ZRANB3 / Fold change vs veh, ZRANB3 / RFU, CUL4A / Fold change vs veh, CUL4A / RFU, CCNY / Fold change vs veh, CCNY / RFU, UFL1 / Fold change vs veh, UFL1 / RFU, COG3 / Fold change vs veh, COG3 / RFU, DIAPH2 / Fold change vs veh, DIAPH2 / RFU, SKA2 / Fold change vs veh, SKA2 / RFU, AFF3 / Fold change vs veh, AFF3 / RFU, LMF1 / Fold change vs veh, LMF1 / RFU, IPO11 / Fold change vs veh, IPO11 / RFU, DFFB / Fold change vs veh, DFFB / RFU, FOXP1 / Fold change vs veh, FOXP1 / RFU, CARD8 / Fold change vs veh, CARD8 / RFU, STRN3 / Fold change vs veh, STRN3 / RFU, ADK / Fold change vs veh, ADK / RFU, RASSF2 / Fold change vs veh, RASSF2 / RFU, WIPF1 / Fold change vs veh, WIPF1 / RFU, LARP1B / Fold change vs veh, LARP1B / RFU, RASA1 / Fold change vs veh, RASA1 / RFU, RB1 / Fold change vs veh, RB1 / RFU, PPFIA1 / Fold change vs veh, PPFIA1 / RFU, MAT2A / Fold change vs veh, MAT2A / RFU, CCT5 / Fold change vs veh, CCT5 / RFU, WDR92 / Fold change vs veh, WDR92 / RFU, CUX1 / Fold change vs veh, CUX1 / RFU, TTC7A / Fold change vs veh, TTC7A / RFU, TMEM135 / Fold change vs veh, TMEM135 / RFU, DEPTOR / Fold change vs veh, DEPTOR / RFU, CPM / Fold change vs veh, CPM / RFU, DNAJB6 / Fold change vs veh, DNAJB6 / RFU, CACNA2D3 / Fold change vs veh, CACNA2D3 / RFU, DTX4 / Fold change vs veh, DTX4 / RFU, TFCP2 / Fold change vs veh, TFCP2 / RFU, GMCL1 /// GMCL1P1 / Fold change vs veh, GMCL1 /// GMCL1P1 / RFU, AEBP2 / Fold change vs veh, AEBP2 / RFU, SNHG1 /// SNORD22 /// SNORD25 /// SNORD26 /// SNORD27 /// SNORD28 /// SNORD29 /// SNORD31 / Fold change vs veh, SNHG1 /// SNORD22 /// SNORD25 /// SNORD26 /// SNORD27 /// SNORD28 /// SNORD29 /// SNORD31 / Fold change (Aza/veh), C12orf56 (ProbeSet 11735607_a_at) / Fold change (ACY-1035/veh), C12orf56 (ProbeSet 11735607_a_at) / Fold change (Aza/veh), FGFR1OP (ProbeSet 11751329_s_at) / Fold change (ACY-1035/veh), FGFR1OP (ProbeSet 11751329_s_at) / Fold change (Aza/veh), VPS36 (ProbeSet 11739960_a_at) / Fold change (ACY-1035/veh), VPS36 (ProbeSet 11739960_a_at) / RFU SYPL1 (11715823_x_at) / Fold change /veh SYPL1 (11715823_x_at) / RFU IGFBP7 (11715501_s_at) / Fold change /veh IGFBP7 (11715501_s_at) / RFU REEP3 (11722064_at) / Fold change /veh REEP3 (11722064_at) / RFU IGLL1 (11728026_x_at) / Fold change /veh IGLL1 (11728026_x_at): dose or concentration left out as unconfirmed
Settings: MV-4-11 cells, 48 hours

## Nc1ccc(-c2cccs2)cc1NC(=O)c1ccc2c(c1)cc(C1CC1)n2CCN1CCOCC1 [ACY-1035]
  RFU C5orf56 (11738089_at): 10.10 RFU

Reference: publication PMC5218480 (PLoS ONE, 2017)
